Biological target: T1, MAGL protein (Homo sapiens, UniProt Q99685)
T1 sequence (Q99685 1-303): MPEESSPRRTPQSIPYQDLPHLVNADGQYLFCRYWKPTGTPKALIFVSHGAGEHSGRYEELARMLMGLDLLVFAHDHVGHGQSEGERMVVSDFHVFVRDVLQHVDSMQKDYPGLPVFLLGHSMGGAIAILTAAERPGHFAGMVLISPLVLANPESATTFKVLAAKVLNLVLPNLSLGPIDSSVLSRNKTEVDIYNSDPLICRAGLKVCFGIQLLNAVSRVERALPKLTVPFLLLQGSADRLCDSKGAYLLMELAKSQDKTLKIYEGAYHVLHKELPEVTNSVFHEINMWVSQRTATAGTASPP
Experiment: 2-AG assay: MAGL inhibitory activity by hydrolysis of 2-arachidonoylglycerol to arachidonic acid, followed by mass spectrometry
Type: biochemical
Conditions: 8 μM 2-arachidonoylglycerol, 15 min preincubation, 30 min reaction at RT, RapidFire MS readout
How it was run: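 MAGL was preincubated 15 min at RT with compound (12.5 to […], 3-fold steps) in 50 mM TRIS, 1 mM EDTA, 0.01% Tween-20, 2.5% DMSO. The reaction ran 30 min at RT with 8 μM 2-AG. Arachidonic acid was quantified by RapidFire SPE-MS/MS against a d8-arachidonic acid internal standard.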

| IC50 | Compound |
| --- | --- |
| 28.2 nM | O=C(N1CC(c2ccc(NC3CCS(=O)(=O)C3)nc2)C1)N1CC2(CC(c3nnc(C4CC4)[nH]3)C2)C1 (stereo not shown) [compound 81] |
| 130 nM | O=C(N1CC(NCc2cc(C(F)(F)F)ccc2F)C1)N1CC2(CC(c3nnc(C4CC4)[nH]3)C2)C1 [compound 195] |
| 0.48 nM | O=C(N1CC(c2ccc(N3CC4(CCCC4)C3)nc2)C1)N1CC2(CC(c3nnc(C4CC4)[nH]3)C2)C1 [compound 302] |
| 0.37 nM | Cc1cc(C(F)F)nn1-c1ccc(C2CN(C(=O)N3CC4(CC(c5nnc(C6CC6)[nH]5)C4)C3)C2)cc1 [compound 285] |
| 2.07 nM | O=C(N1CC(c2ccc(N3CC(O)(C(F)(F)F)C3)nc2)C1)N1CC2(CC(c3nnc(C4CC4)[nH]3)C2)C1 [compound 275] |
| 2.53 nM | O=C(N1CC(C23CC(Cc4nnc(C5CC5)o4)(C2)C3)C1)N1CC2(CC(c3nc(C4CC4)n[nH]3)C2)C1 [compound 928] |
| 1 nM | Cn1ncc(C(F)(F)F)c1CN1CCC2(CC1)CN(C(=O)N1CC3(CC(c4nc(C5CC5)n[nH]4)C3)C1)C2 [compound 461] |
| 4.76 nM | O=C(N1CC(Oc2ccc(C(F)(F)F)nn2)C1)N1CC2(CC(c3nnc(C4CC4)[nH]3)C2)C1 [compound 314] |
| 2.47 nM | O=C(N1CC(c2cnc(CNC3(C(F)(F)F)CC3)cn2)C1)N1CC2(CC(c3nc(C4CC4)n[nH]3)C2)C1 [compound 443] |
| 0.67 nM | O=C(N1CC(c2ccc(-n3ccc(C(F)(F)F)n3)cc2)C1)N1CC2(CC(c3nnc(C4CC4)[nH]3)C2)C1 [compound 873] |
| 4.29 nM | O=C(N1CC(c2ccc(-c3nnc(C4(C(F)(F)F)CC4)[nH]3)cc2)C1)N1CC2(CC(c3nc(C4CC4)n[nH]3)C2)C1 [compound 377] |
| 1.8 nM | O=C(N1CC2(CCN(Cc3ccc(C(F)(F)F)cn3)CC2)C1)N1CC2(CC(c3nnc(C4CC4)[nH]3)C2)C1 [compound 178] |
| 0.01 nM | O=C(N1CC2(CC(Cc3ccc(C(F)(F)F)cc3F)C2)C1)N1CC2(CC(c3nnc(C4(O)CC4)[nH]3)C2)C1 [compound 38] |
| 34 nM | COc1cc(Cl)ccc1CN(C)C1CN(C(=O)N2CC3(CC(c4nnc(C5CC5)[nH]4)C3)C2)C1 [Example 891, [3-[(4-chloro-2-methoxy-benzyl)-methyl-amino]azetidin-1-yl]-[6-(5-cyclopropyl-4H-1,2,4-triazol-3-yl)-2-azaspiro[3.3]heptan-2-yl]methanone] |
| 24.3 nM | O=C(N1CC2(CC(c3nc(C4CC4)n[nH]3)C2)C1)N1CC2(CN(Cc3nccn3C(F)(F)F)C2)C1 [compound 709] |
| 3110 nM | Cn1ccc(CN2CC3(C2)CN(C(=O)N2CC4(CC(c5nc(C6CC6)n[nH]5)C4)C2)C3)n1 [Example 902, [6-(3-cyclopropyl-1H-1,2,4-triazol-5-yl)-2-azaspiro[3.3]heptan-2-yl]-[6-[(1-methylpyrazol-3-yl)methyl]-2,6-diazaspiro[3.3]heptan-2-yl]methanone] |
| 0.06 nM | CC(C)(C)n1nnc(C2(c3ccc(C4CN(C(=O)N5CC6(CC(c7nnc(C8CC8)[nH]7)C6)C5)C4)cc3)CC2)n1 [compound 365] |
| 35.8 nM | O=C(N1CC(C23CC(Cc4ccc(C(F)(F)F)nc4)(C2)C3)C1)N1CC2(CC(c3nc(C4(O)CC4)n[nH]3)C2)C1 [compound 570] |
| 32.7 nM | O=C(N1CC2(CC(c3nnc(C4CC4)[nH]3)C2)C1)N1CC2(CC(N3CC(CC(F)(F)F)C3)C2)C1 [compound 84] |
| 0.4 nM | O=C(N1CC(c2ccc(S(=O)(=O)c3ccccc3)cc2)C1)N1CC2(CC(c3nnc(C4CC4)[nH]3)C2)C1 [compound 371] |
| 0.18 nM | O=C(N1CC2(CC(Cc3ccc(S(=O)(=O)C(F)(F)F)cn3)C2)C1)N1CC2(CC(c3nc(C4CC4)n[nH]3)C2)C1 [compound 813] |
| 352 nM | COc1cc(C(N)=O)ccc1COC1CCN(C(=O)N2CC3(CC(c4nnc(C5CC5)[nH]4)C3)C2)CC1 [Example 885, 4-[[1-[6-(5-cyclopropyl-4H-1,2,4-triazol-3-yl)-2-azaspiro[3.3]heptane-2-carbonyl]-4-piperidyl]oxymethyl]-3-methoxy-benzamide] |
| 0.08 nM | N=S(=O)(c1cccc(CC2CC3(C2)CN(C(=O)N2CC4(CC(c5nnc(C6CC6)[nH]5)C4)C2)C3)c1)C(F)(F)F (racemic) [compound 125] |
| 1.89 nM | O=C(N1CC2(CCC(Oc3ncc(C(F)(F)F)cn3)CC2)C1)N1CC2(CC(c3nnc(C4CC4)[nH]3)C2)C1 [compound 134] |
| 467 nM | CS(=O)(=O)c1ccccc1COC1CN(C(=O)N2CC3(CC(c4nnc(C5CC5)[nH]4)C3)C2)C1 [compound 335] |
| 3.95 nM | O=C(N1CC2(CC(c3nc(C4CC4)n[nH]3)C2)C1)N1CC2(CN(Cc3ccc(OCC(F)(F)F)nc3)C2)C1 [compound 963] |
| 0.57 nM | O=C(N1CC2(CC(Cc3ccc(OC(F)(F)F)cn3)C2)C1)N1CC2(CC(c3nnc(C4(O)CC4)[nH]3)C2)C1 [compound 9] |
| 316 nM | O=C(N1CC(CNS(=O)(=O)c2ccc(C(F)(F)F)cc2)C1)N1CC2(CC(c3nnc(C4CC4)[nH]3)C2)C1 [compound 209] |
| 159 nM | O=C(N1CC(OCc2ccc(C(F)(F)F)nc2)C1)N1CC2(CC(c3nnc(C4CC4)[nH]3)C2)C1 [compound 332] |
| 2.04 nM | O=C(N1CC2(CC(Cc3ccc(C(F)(F)F)cn3)C2)C1)N1CC2(CC(c3nnc(C4CCC4)[nH]3)C2)C1 [compound 112] |

The remaining lines, values behind:

| Compound | IC50 |
| --- | --- |
| N=S(=O)(c1cc(F)cc(CC2CC3(C2)CN(C(=O)N2CC4(CC(c5nc(C6CC6)n[nH]5)C4)C2)C3)c1)C(F)(F)F (stereo not shown) [compound 649] | 0.12 nM |
| O=C(N1CC2(CC(CNC3(C(F)(F)F)CC3)C2)C1)N1CC2(CC(c3ncn[nH]3)C2)C1 [compound 983] | 2180 nM |
| N#Cc1cc(CC2CC3(C2)CN(C(=O)N2CC4(CC(c5nc(C6COC6)n[nH]5)C4)C2)C3)cc(C(F)(F)F)c1 [compound 759] | 11 nM |
| O=C(N1CC2(CCC(Cc3ncc(F)cc3F)C2)C1)N1CC2(CC(c3nc(C4(O)CC4)n[nH]3)C2)C1 (stereo not shown) [compound 929] | 3.85 nM |
| Cc1cc(C(F)(F)F)n(CC2CC3(C2)CN(C(=O)N2CC4(CC(c5nc(C6CC6)n[nH]5)C4)C2)C3)n1 [compound 428] | 0.31 nM |
| O=C(N1CC(C23CC(Cn4ccc(C(F)(F)F)cc4=O)(C2)C3)C1)N1CC2(CC(c3nc(C4CC4)n[nH]3)C2)C1 [compound 947] | 9.12 nM |
| O=C(N1CC2(CC(c3nc(C4(O)CC4)n[nH]3)C2)C1)N1CC2(CC[C@H](Cc3cccc(S(=O)(=O)C(F)(F)F)c3)C2)C1 [compound 741] | 0.15 nM |
| CS(=O)(=O)c1ccc(OCC2CCN(C(=O)N3CC4(CC(c5nc(C6(O)CC6)n[nH]5)C4)C3)CC2)cc1C(F)(F)F [Example 922] | 326 nM |
| O=C(N1CC2(CC(c3nc(C4(F)CC4)n[nH]3)C2)C1)N1CC2(CN(Cc3ccc(S(=O)(=O)C(F)(F)F)cc3)C2)C1 [compound 427] | 1.33 nM |
| O=C(N1CC2(CC(Cc3cccc(S(=O)(=O)C(F)(F)F)c3)C2)C1)N1CC2(CC(c3nc(C4CC(F)(F)C4)n[nH]3)C2)C1 [compound 604] | 6.89 nM |
| N#Cc1ccc(CC2CC3(C2)CN(C(=O)N2CC4(CC(c5nc(C6CC6)n[nH]5)C4)C2)C3)cc1C(F)(F)F [compound 590] | 0.34 nM |
| N#Cc1ccc(CC2CC3(C2)CN(C(=O)N2CC4(CC(c5nc(C6COC6)n[nH]5)C4)C2)C3)cc1C(F)(F)F [compound 771] | 7.02 nM |
| O=C(N1CC2(CC(Cn3cc(C(F)(F)F)cn3)C2)C1)N1CC2(CC(c3nc(C4(O)CC4)n[nH]3)C2)C1 [compound 671] | 5.55 nM |
| O=C(N1CC2(CC(Cn3ncnc3C(F)(F)F)C2)C1)N1CC2(CC(c3nc(C4CC4)n[nH]3)C2)C1 [compound 444] | 3.25 nM |
| Cc1c(CN2CC3(C2)CN(C(=O)N2CC4(CC(c5nc(C6CC6)n[nH]5)C4)C2)C3)cnn1CC(F)(F)F [compound 640] | 43.7 nM |
| O=C(N1CC2(CC(c3nc(C4CC4)n[nH]3)C2)C1)N1CC2(CN(Cc3nc(C(F)(F)F)co3)C2)C1 [compound 693] | 24.5 nM |
| O=C(N1CC2(CC(c3nc(C4CC4)n[nH]3)C2)C1)N1CC2(CC(S(=O)(=O)c3cccc(OC(F)(F)F)c3)C2)C1 [compound 533] | 5.57 nM |
| O=C(N1CC2(CC(Cc3ncc(F)cc3F)C2)C1)N1CC2(CC(c3ncn[nH]3)C2)C1 [compound 988] | 2070 nM |
| O=C(N1CC2(CC(c3nc(C4CC4)n[nH]3)C2)C1)N1CC2(CN(Cc3cc(C(F)(F)F)no3)C2)C1 [compound 672] | 8.31 nM |
| O=C(N1CC(OCc2ccc(C(F)(F)F)cc2F)C1)N1CC2(CC(c3nnc([C@@H](O)C(F)(F)F)[nH]3)C2)C1 (single isomer, unassigned) [Example 388] | 410 nM |
| Cn1nc(CC2CC3(C2)CN(C(=O)N2CC4(CC(c5nc(C6CC6)n[nH]5)C4)C2)C3)cc1C(F)(F)F [compound 506] | 0.12 nM |
| CS(=O)(=O)c1cc(CC2CC3(C2)CN(C(=O)N2CC4(CC(c5nc(C6(O)CC6)n[nH]5)C4)C2)C3)cc(C(F)(F)F)c1 [compound 670] | 1 nM |
| CS(=O)(=O)c1ccc(COC2CCN(C(=O)N3CC4(CC(c5nc(C6(O)CC6)n[nH]5)C4)C3)CC2)c(Cl)c1 [Example 918, [4-(2-chloro-4-mesyl-benzyl)oxypiperidino]-[6-[3-(1-hydroxycyclopropyl)-1H-1,2,4-triazol-5-yl]-2-azaspiro[3.3]heptan-2-yl]methanone] | 964 nM |
| N#Cc1cc(CC2CC3(C2)CN(C(=O)N2CC4(CC(c5nc(C6COC6)n[nH]5)C4)C2)C3)ccc1C(F)(F)F [compound 808] | 0.29 nM |
| Cn1nc(CN2CC3(C2)CN(C(=O)N2CC4(CC(c5nc(C6CC6)n[nH]5)C4)C2)C3)cc1C(F)(F)F [compound 681] | 7.41 nM |

Reference: patent publication US20250099448A1, “HETEROCYCLIC COMPOUNDS” (Hoffmann-La Roche Inc., priority 2022, published 2025)
